Laboratory results from patent US20130317096A1, “SYNERGISTIC INTERACTION OF AT LEAST ONE VITAMIN E COMPONENT AND TYROSINASE INHIBITORS FOR DERMATOLOGICAL APPLICATIONS” (Davos Life Science Pte Ltd, priority 2010, published 2013).
Entries after “also recorded” stand apart in the source; their conditions may differ.

How the values were obtained:
tyrosinase [1] = assay: UV-induced tyrosinase protein expression, Western blot; format: cell-based, mouse; conditions: for tyrosinase protein expression of B16 cells exposed to UV: UV 1, 10, 30 and 60 minutes
Description: (§2) The UVB source for cell irradiation was provided using a UVP UVM-57 handheld UV lamp (UVP Inc, Upland, Calif., USA).
Briefly, cell lysates were prepared by suspending cell pellets in lysis buffer (50 mmol/l Tris-HCl [pH 8.0], 150 mmol/l NaCl, 1% NP40, 0.5% deoxycholate, 0.1% SDS, 1 mg/ml aprotinin, 1 μg/ml leupeptin, and 1 mmol/l phenylmethylsulfonyl fluoride). The protein concentration was measured using the DC Protein Assay kit (Bio-Rad, Hercules, Calif., USA). An equal amount of protein (30 μg) was loaded onto a 10% SDS polyacrylamide gel for electrophoresis, then transferred onto a polyvinylidene difluoride membrane (Amersham, Piscataway, N.J., USA). The membrane was then incubated with primary antibodies for 1 hr at room temperature against tyrosinase, Id1, and beta-actin (Santa Cruz Biotechnology, Inc., Santa Cruz, Calif., USA). After incubation with appropriate secondary antibodies, signals were visualized by an ECL Western blotting system (Amersham). The expression of β-actin was assessed as an internal loading control for total cell lysate.

B16 melanoma cells [2] = assay: Anti-pigmentation effect, photographs of cell pellets; format: cell-based, mouse
Description: (§1) At different time points, cells were harvested using trysin-EDTA and the cell pellets were washed once with phosphate-buffered saline (PBS). A sample amount from each compound treatment group was divided into two equal parts. These cell pellets were then stored at −80° C. prior to the measurement of the tyrosinase activity and melanin content.

tyrosinase [3] = assay: Western blot of tyrosinase protein expression in B16 melanoma cells; format: cell-based, mouse; conditions: for time response of tyrosinase suppression: single dose, 24 hrs versus 48 hrs; for tyrosinase protein suppression, dose response and relative potency: increasing dosage
Description: Carcinogenesis, 2006, 27, 2180-9. Briefly, cell lysates were prepared by suspending cell pellets in lysis buffer (50 mmol/l Tris-HCl [pH 8.0], 150 mmol/l NaCl, 1% NP40, 0.5% deoxycholate, 0.1% SDS, […], 1 μg/ml leupeptin, and 1 mmol/l phenylmethylsulfonyl fluoride). The protein concentration was measured using the DC Protein Assay kit (Bio-Rad, Hercules, Calif., USA). An equal amount of protein (30 μg) was loaded onto a 10% SDS polyacrylamide gel for electrophoresis, then transferred onto a polyvinylidene difluoride membrane (Amersham, Piscataway, N.J., USA). The membrane was then incubated with primary antibodies for 1 hr at room temperature against tyrosinase, Id1, and beta-actin (Santa Cruz Biotechnology, Inc., Santa Cruz, Calif., USA). After incubation with appropriate secondary antibodies, signals were visualized by an ECL Western blotting system (Amersham). The expression of β-actin was assessed as an internal loading control for total cell lysate.

tyrosinase mRNA = assay: Reverse transcriptase PCR of tyrosinase mRNA; format: cell-based, mouse; conditions: B16 melanoma cells
Description: Total RNA was isolated using Trizol reagent according to the manufacturer's protocol (Invitrogen, Carlsbad, Calif., USA). cDNA was synthesized using the SuperScript First Strand Synthesis System (Invitrogen, Carlsbad, Calif., USA) and was then amplified by PCR with tyrosinase-specific primers (forward primer, tyrosinase-S,5′-[…]-3′ [−2236/−2217] (SEQ ID NO: 1) and reverse primer, tyrosinase-AS,5′-[…]-3′ [+63/+42]) (SEQ ID NO: 2) and GAPDH specific primers: 5′ to 3′F […] (SEQ ID NO: 3); 5′ to 3′R […] (SEQ ID NO: 4). The PCR cycling protocol was as follows: 30 cycles for 10 min at 95° C., 30 sec at 95° C., 30 sec at 55° C., 1 min at 72° C., and 10 min at 72° C. Glyceraldehyde 3-phosphate dehydrogenase (GAPDH) was amplified as an internal control. The PCR products were electrophoresed on a 2% agarose gel and analyzed using a gel documentation system.

B16 melanoma cells [4] = assay: MTT cell viability assay; format: cell-based, mouse; conditions: 24 hrs of treatment; for B16 melanoma cell viability / proliferation rate: increasing dosages
Description: B16 mouse melanoma cells were purchased from (ATCC, Manassas, Va., USA).
The base medium for the cell line was Dulbecco's modified Eagle's medium (DMEM). To make the complete growth medium, fetal bovine serum (final concentration, 10%) was added to the base medium. Tocotrienol (T3) and tocopherol (TP) isomers and the palm tocotrienol-rich fraction (TRF) were purified from a palm fatty acid distillate (PFAD) using molecular distillation and Novasep® equipment (Novasep, Pompey, France). The extraction facility is located in Tuas, Singapore. The PFAD feed was purchased from Kuala Lumpur Kepong Berhad (Kuala Lumpur, Malaysia). The purity of the vitamin E isomers was verified by HPLC and gas chromatography (GC) percentage peak area.
For the cell viability study, 5×10^3 cells re-suspended in 100 μl of medium were plated into each well of a 96-well plate. The cells were then treated with different concentrations of the vitamin-E isomers for 24 hrs. After the treatment, 20 μl of MTT solution (1 mg/ml in PBS; Sigma-Aldrich, St. Louis, Mo., USA) was added to each well and the cells were incubated at 37° C. for 2 hrs. The formazan crystals were then re-suspended in 200 μl of DMSO and the intensity at 595 nm was measured.

[5] = test system: cleaved caspase 3 and PARP; assay: Western blot of apoptotic molecules; format: cell-based, mouse; conditions: B16 melanoma cells
B16 cells = assay: Melanin content of pre-treated B16 cells after UV exposure; format: cell-based, mouse; conditions: 10 minutes UV exposure (short and long wave UV)
Description: as §2

[6] = test system: B16 cells xenografted on the flank of nude mice; assay: B16 xenograft model in nude mice; format: in vivo; conditions: cells pre-treated with 20 μM for 1 week, 14 days oral supplementation
Description: The experimental protocol was approved by the IACUC Committee of the A-STAR Biological Resource Centre (BRC) at Biopolis (IACUC no. 080302). Male BALB/c athymic nude mice (4-5 weeks old, 18-22 g) were purchased from The Jackson Laboratory (Bar Harbor, Me., USA). Mice were housed in Department 1 of the Biological Resource Centre (Biopolis, Singapore) under the standard condition (20.8±2° C., 55±1% relative humidity, 12 hrs light/dark cycle) with rodent diet (Harlan Laboratories, Inc., Indianapolis, Ind., USA) and chlorinated reverse osmosis water supplied in a pathogen-free environment. Briefly, B16 cells were pre-treated with 20 μM of γ- and δ-T3, or palm TRF for 1 week. Then, 5×10^5 pre-treated B16 cells in 100 μl serum-free DMEM were injected subcutaneously into the flank of nude mice using a 1-ml syringe with a 26-gauge needle (Becton Dickinson, Franklin Lakes, N.J., USA). This was followed by a 2-week oral supplementation of γ- and δ-T3, or palm TRF at the dose of 100 mg/kg/day. Altogether, there are four experimental groups: G1, vehicle control; G2, γT3 (100 mg/kg/d); G3, δT3 (100 mg/kg/d); and G4, full spectrum palm TRF (100 mg/kg/d). The mice were weighed daily and the tumors were measured using a Digital Carbon Fiber Caliper (Fisher Scientific, Pittsburgh, Pa., USA) at the 5th and 14th day after innoculation. After 14 days of treatment, the mice were euthanized by CO2 inhalation. Blood samples were collected through cardiac bleeding using a 26-gauge needle. Blood samples were incubated at room temperature for 30 min, followed by centrifugation at 4400 rpm for 30 min at 4° C. Serum, as the supernatant, was separated from plasma and stored at −80° C. Tumors, liver, kidney, spleen, lung, heart, and skin were harvested.

B16 melanoma cells [7] = assay: Melanin content of treated B16 melanoma cells; format: cell-based, mouse; conditions: for melanin content lower than controls: 20 μM
Description: as §1
Harvested cell pellets were dissolved in 1 ml of 1N sodium hydroxide before incubation at 80° C. The melanin content was then immediately measured at 420 nm. The absorbance percentage values of the treated groups in comparison to untreated controls were calculated against per μg of the determined total protein content.

[8] = 0.05% (3.5 mM kojic acid, 4.5 mM sodium lactate)

## Cc1c(C)c2c(c(C)c1O)CC[C@@](C)(CCC[C@H](C)CCC[C@H](C)CCCC(C)C)O2 [α-tocopherol, 5,7,8-trimethyltocol]
Tyrosinase [1]
  tyrosinase protein expression of B16 cells exposed to UV: not able to block UVB-induced activation of tyrosinase at all time points tested
B16 melanoma cells [2]; 20 μM
  cell pellet pigmentation: comparable pigmentation level to controls
Tyrosinase [3]
  time response of tyrosinase suppression: no impact on the suppression of tyrosinase
Tyrosinase mRNA
  tyrosinase mRNA: No change of tyrosinase mRNA
Tyrosinase mRNA; listed as αTP
  tyrosinase mRNA: not affected

## CC(=O)Oc1cc(C)c2c(c1)CCC(C)(CCC=C(C)CCC=C(C)CCC=C(C)C)O2 (stereo not shown) [δT3 acetate, δ-tocotrienol acetate]
Tyrosinase [3]; 20 μM treatment
  tyrosinase protein expression: suppresses tyrosinase protein expression

## O=c1cc(CO)occ1O [kojic acid]
B16 melanoma cells [4]
  concentration with anti-proliferation effect: ≥ 0.5%
  B16 melanoma cell viability / proliferation rate: inhibit B16 melanoma cell viability at high concentrations
B16 melanoma cells [2]; 20 μM
  cell pellet pigmentation: comparable pigmentation level to controls
B16 melanoma cells [2]; [8]
  cell pellet pigmentation: lighter cell pigmentation
[5]
  induction of apoptotic molecules (cleaved caspase 3 and PARP): induced cellular apoptosis; also recorded: induced critical apoptotic molecules in a dose-dependent manner
Tyrosinase mRNA
  tyrosinase mRNA: not affected; also recorded: No change of tyrosinase mRNA

## CC(C)=CCCC(C)=CCCC(C)=CCCC1(C)CCc2cc(OC(=O)CCC(=O)O)c(C)c(C)c2O1 (stereo not shown) [γT3 succinate, γ-tocotrienol succinate]
Tyrosinase [3]; up to 60 μM
  tyrosinase protein expression: does not suppress tyrosinase protein expression

## CC(C)=CCC/C(C)=C/CC/C(C)=C/CC[C@]1(C)CCc2c(C)c(O)cc(C)c2O1 [β-tocotrienol, 5,8-dimethyltocotrienol]
B16 melanoma cells [4]
  B16 melanoma cell viability / proliferation rate: inhibited the proliferation rate of B16 melanoma cells in a dose-dependent fashion; also recorded: inhibit B16 melanoma cell viability at high concentrations
[5]
  induction of apoptotic molecules (cleaved caspase 3 and PARP): induced critical apoptotic molecules in a dose-dependent manner
[5]; listed as β-T3
  induction of apoptotic molecules (cleaved caspase 3 and PARP): induced cellular apoptosis

## CC(O)C(=O)[O-].[Na+] (stereo not shown) [sodium lactate, reference compound]
B16 melanoma cells [2]; 20 μM
  cell pellet pigmentation: comparable pigmentation level to controls
B16 melanoma cells [2]; [8]
  cell pellet pigmentation: Lighter pigmentation
Tyrosinase [3]; 20 μM treatment
  tyrosinase protein expression: did not result in observable down-regulation; also recorded: does not suppress tyrosinase protein expression
Tyrosinase [3]
  tyrosinase protein suppression, dose response and relative potency: observed only at much higher concentration
  time response of tyrosinase suppression: opposite observation; also recorded: diminished after 48 hrs
Tyrosinase [3]; up to 100 μM
  tyrosinase protein expression: does not suppress tyrosinase protein expression
Tyrosinase mRNA
  tyrosinase mRNA: not affected; also recorded: No change of tyrosinase mRNA

## alpha arbutin [reference compound]
B16 melanoma cells [4]
  B16 melanoma cell viability / proliferation rate: inhibit B16 melanoma cell viability at high concentrations
B16 melanoma cells [2]; 20 μM
  cell pellet pigmentation: comparable pigmentation level to controls
B16 melanoma cells [2]; 1 mM
  cell pellet pigmentation: lighter cell pigmentation
[5]
  induction of apoptotic molecules (cleaved caspase 3 and PARP): induced critical apoptotic molecules in a dose-dependent manner
Tyrosinase [3]
  concentration at which suppression of tyrosinase is observed: 1 mM
Tyrosinase [3]; up to 60 μM
  tyrosinase protein expression: does not suppress tyrosinase protein expression

## CC(C)=CCC/C(C)=C/CC/C(C)=C/CC[C@]1(C)CCc2cc(O)cc(C)c2O1 [δ-tocotrienol, 8-methyltocotrienol]
B16 melanoma cells [4]
  B16 melanoma cell viability / proliferation rate: inhibited the proliferation rate of B16 melanoma cells in a dose-dependent fashion; also recorded: inhibit B16 melanoma cell viability at high concentrations
Tyrosinase [1]; <10 min UVB
  suppression of short-term UVB-induced tyrosinase activation: more potent than γT3
Tyrosinase [1]
  tyrosinase protein expression of B16 cells exposed to UV: significantly suppressed the tyrosinase protein expression
Tyrosinase [1]; long-term UVB
  long-term inhibitory effect on UVB-induced tyrosinase activation: comparable
B16 cells
  melanin content after UV exposure: significantly suppressed the melanin content
[6]
  pigmentation of solid tumors: lighter in colour compared to controls
  tumor size: significantly smaller
B16 melanoma cells [2]; 20 μM, listed as delta-T3
  cell pellet pigmentation: lighter cell pigmentation
B16 melanoma cells [2]; 20 μM, listed as δT3
  cell pellet pigmentation: lighter cell pigmentation
[5]
  induction of apoptotic molecules (cleaved caspase 3 and PARP): induced critical apoptotic molecules in a dose-dependent manner
[5]; listed as δ-T3
  induction of apoptotic molecules (cleaved caspase 3 and PARP): induced cellular apoptosis
Tyrosinase [3]; 20 μM treatment, listed as δ-T3
  tyrosinase protein expression: remarkable suppression of tyrosinase protein expression
Tyrosinase [3]; 20 μM treatment, listed as δT3
  tyrosinase protein expression: suppresses tyrosinase protein expression
Tyrosinase [3]; listed as δ-T3
  tyrosinase protein suppression, dose response and relative potency: significant suppression of tyrosinase in a dose-dependent manner
  time response of tyrosinase suppression: enhanced by increasing the treatment period from 24 to 48 hrs
Tyrosinase [3]; listed as δT3
  tyrosinase protein suppression, dose response and relative potency: most potent inhibitor of tyrosinase protein
  time response of tyrosinase suppression: enhanced after a 48 hr incubation period
Tyrosinase mRNA
  tyrosinase mRNA: No change of tyrosinase mRNA
Tyrosinase mRNA; listed as δ-T3
  tyrosinase mRNA: not affected
B16 melanoma cells [7]; day 5
  melanin content lower than controls: 45%
B16 melanoma cells [7]; day 9
  melanin content lower than controls: 30%
B16 melanoma cells [7]; B16 melanoma cells
  constitutive melanin synthesis: suppress constitutive melanin synthesis

## CC(=O)Oc1cc2c(c(C)c1C)OC(C)(CC/C=C(\C)CC/C=C(\C)CCC=C(C)C)CC2 (stereo not shown) [γT3 acetate, γ-tocotrienol acetate]
Tyrosinase [3]; 20 μM treatment
  tyrosinase protein expression: suppresses tyrosinase protein expression
